One block for each compound: values may come before it. Active and inactive are the calls of the source. The rule behind the calls is not given here.
Assays:
Liver = test: Inhibition of liver […]; type: functional, tissue-based; conditions: Homo sapiens
Mus musculus = species: Mus musculus; test: Antihyperglycemic activity in obese mouse; type: functional, organism-based
[1] = target: T1, Glycogen phosphorylase, liver form (Rattus norvegicus, UniProt P09811); test: Inhibition of phosphorylated form of rat liver glycogen phosphorylase
T1 sequence (P09811 whole entry): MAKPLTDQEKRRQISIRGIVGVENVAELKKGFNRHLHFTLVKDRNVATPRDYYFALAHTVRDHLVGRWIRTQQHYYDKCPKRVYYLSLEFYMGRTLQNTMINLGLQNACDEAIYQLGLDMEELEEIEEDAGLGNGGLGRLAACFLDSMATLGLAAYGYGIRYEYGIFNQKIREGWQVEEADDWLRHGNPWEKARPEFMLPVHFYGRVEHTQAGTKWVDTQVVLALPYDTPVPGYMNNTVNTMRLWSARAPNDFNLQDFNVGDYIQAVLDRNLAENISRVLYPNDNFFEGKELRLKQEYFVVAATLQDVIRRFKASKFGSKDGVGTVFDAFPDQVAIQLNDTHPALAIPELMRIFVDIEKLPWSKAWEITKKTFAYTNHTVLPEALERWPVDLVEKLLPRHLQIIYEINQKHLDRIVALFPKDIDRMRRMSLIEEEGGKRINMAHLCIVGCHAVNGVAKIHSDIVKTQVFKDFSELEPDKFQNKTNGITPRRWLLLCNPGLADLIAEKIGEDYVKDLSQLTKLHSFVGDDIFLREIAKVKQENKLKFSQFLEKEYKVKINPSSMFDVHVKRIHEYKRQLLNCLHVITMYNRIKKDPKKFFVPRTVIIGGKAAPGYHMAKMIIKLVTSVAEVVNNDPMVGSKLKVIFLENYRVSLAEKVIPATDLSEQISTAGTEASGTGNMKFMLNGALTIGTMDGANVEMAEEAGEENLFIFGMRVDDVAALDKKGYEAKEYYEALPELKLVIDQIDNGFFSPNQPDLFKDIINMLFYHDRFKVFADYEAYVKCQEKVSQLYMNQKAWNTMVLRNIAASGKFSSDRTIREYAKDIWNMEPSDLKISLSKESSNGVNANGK

Hepatocyte [2] = test: cells; conditions: Homo sapiens
Description: Inhibition of glycogen degradation in hepatocytes

Hepatocyte [3] = test: cells; conditions: Homo sapiens; remark: listed apart in the source
Description: Inhibition of glucagon-stimulated glycogen degradation in hepatocytes

Structure (SMILES): OC[C@H]1NC[C@@H](O)[C@@H]1O
- Activity (Liver): Active
- Activity (Mus musculus): Active

- IC50 [1]: 1.22 µM
Structure (SMILES): OC[C@H]1CN(CCCc2ccccc2)C[C@@H](O)[C@@H]1O

Structure (SMILES): OC[C@H]1CNC[C@@H](O)[C@@H]1O [AFEGOSTAT]
- IC50 (Hepatocyte [2]): 3 µM
- IC50 (Hepatocyte [3]): 2 µM

From ChEMBL document CHEMBL1137256, “Iminosugars as potential inhibitors of glycogenolysis: structural insights into the molecular basis of glycogen phosphorylase inhibition” (J Med Chem, 2006)
